Results published in PubChem BioAssay (NCI).
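Assay format: 96-well plates, 48-hour exposure. Here, GI50 denotes the concentration required for 50% inhibition of growth. TGI marks complete inhibition of growth.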

Assays:
Assay in all cases: NCI-60 cell line screen, 48 h
SW-620 colon = system: SW-620 colon
HL-60(TB) leukemia = system: HL-60(TB) leukemia
MDA-MB-231 breast = system: MDA-MB-231 breast
HCT-15 colon = system: HCT-15 colon
SK-OV-3 ovarian = system: SK-OV-3 ovarian
HOP-92 NSCLC = system: HOP-92 NSCLC
MOLT-4 leukemia = system: MOLT-4 leukemia
HCT-116 colon = system: HCT-116 colon
HOP-62 NSCLC = system: HOP-62 NSCLC
SK-MEL-5 melanoma = system: SK-MEL-5 melanoma
BT-549 breast = system: BT-549 breast
786-0 renal = system: 786-0 renal
MALME-3M melanoma = system: MALME-3M melanoma
OVCAR-5 ovarian = system: OVCAR-5 ovarian
K-562 leukemia = system: K-562 leukemia
M14 melanoma = system: M14 melanoma
HCC-2998 colon = system: HCC-2998 colon
SNB-75 CNS = system: SNB-75 CNS
ACHN renal = system: ACHN renal
NCI-H522 lung = system: NCI-H522 lung
RPMI-8226 leukemia = system: RPMI-8226 leukemia
CAKI-1 renal = system: CAKI-1 renal
MDA-MB-468 breast = system: MDA-MB-468 breast
A498 renal = system: A498 renal
HS 578T breast = system: HS 578T breast
SK-MEL-28 melanoma = system: SK-MEL-28 melanoma
SN12C renal = system: SN12C renal
LOX IMVI melanoma = system: LOX IMVI melanoma
UACC-62 melanoma = system: UACC-62 melanoma
SF-539 CNS = system: SF-539 CNS
IGROV1 ovarian = system: IGROV1 ovarian
NCI-H460 lung = system: NCI-H460 lung
NCI-H23 lung = system: NCI-H23 lung
OVCAR-3 ovarian = system: OVCAR-3 ovarian
EKVX NSCLC = system: EKVX NSCLC
T-47D breast = system: T-47D breast
UO-31 renal = system: UO-31 renal
U251 CNS = system: U251 CNS
SF-295 CNS = system: SF-295 CNS
HT29 colon = system: HT29 colon
DU-145 prostate = system: DU-145 prostate
UACC-257 melanoma = system: UACC-257 melanoma
SR leukemia = system: SR leukemia
CCRF-CEM leukemia = system: CCRF-CEM leukemia
SK-MEL-2 melanoma = system: SK-MEL-2 melanoma
NCI-H226 lung = system: NCI-H226 lung
KM12 colon = system: KM12 colon

With `C=Cn1cc(C(=O)O)c(=O)c2cc(F)c(N3CCN(c4nccc(-c5nccs5)n4)CC3)cc21` the GI50 (SW-620 colon) was 23.4 nM, the TGI (SW-620 colon) was 2690 nM and the GI50 (HL-60(TB) leukemia) was 209 nM. For the same compound, the TGI (HL-60(TB) leukemia) was 2950 nM, the GI50 (MDA-MB-231 breast) was 345 nM and the TGI (MDA-MB-231 breast) was 3.44 µM. The GI50 (HCT-15 colon) was 40.5 nM, the TGI (HCT-15 colon) was 1600 nM and the GI50 (SK-OV-3 ovarian) was 208 nM. The TGI (SK-OV-3 ovarian) was 3.79 µM, the GI50 (HOP-92 NSCLC) was 210 nM and the TGI (HOP-92 NSCLC) was 1660 nM. The GI50 (MOLT-4 leukemia) was 40.4 nM, the TGI (MOLT-4 leukemia) was 2520 nM and the GI50 (HCT-116 colon) was 30.4 nM. For the same compound, the TGI (HCT-116 colon) was 1420 nM, the GI50 (HOP-62 NSCLC) was 139 nM and the TGI (HOP-62 NSCLC) was 3.69 µM. It also gave a GI50 (SK-MEL-5 melanoma) of 36.4 nM, a TGI (SK-MEL-5 melanoma) of 576 nM and a GI50 (BT-549 breast) of 194 nM. The TGI (BT-549 breast) was 1560 nM, the GI50 (786-0 renal) was 225 nM and the TGI (786-0 renal) was 2920 nM. For the same compound, the GI50 (MALME-3M melanoma) was 50.6 nM, the TGI (MALME-3M melanoma) was 1330 nM and the GI50 (OVCAR-5 ovarian) was 234 nM. It also gave a TGI (OVCAR-5 ovarian) of 3.37 µM, a GI50 (K-562 leukemia) of 61.4 nM and a TGI (K-562 leukemia) of over 100 µM. It also gave a GI50 (M14 melanoma) of 238 nM, a TGI (M14 melanoma) of 3.38 µM and a GI50 (HCC-2998 colon) of 80.4 nM. It also gave a TGI (HCC-2998 colon) of 2030 nM, a GI50 (SNB-75 CNS) of 115 nM and a TGI (SNB-75 CNS) of 1630 nM. The GI50 (ACHN renal) was 16.6 nM, the TGI (ACHN renal) was 1170 nM and the GI50 (NCI-H522 lung) was 66.7 nM. It also gave a TGI (NCI-H522 lung) of 1280 nM, a GI50 (RPMI-8226 leukemia) of 62 nM and a TGI (RPMI-8226 leukemia) of 1450 nM. It also gave a GI50 (CAKI-1 renal) of 23.7 nM, a TGI (CAKI-1 renal) of 839 nM and a GI50 (MDA-MB-468 breast) of 109 nM. It also gave a TGI (MDA-MB-468 breast) of 1230 nM, a GI50 (A498 renal) of 55.4 nM and a TGI (A498 renal) of 2780 nM. It also gave a GI50 (HS 578T breast) of 86.5 nM, a TGI (HS 578T breast) of 1490 nM and a GI50 (SK-MEL-28 melanoma) of 96.4 nM. The TGI (SK-MEL-28 melanoma) was 1260 nM, the GI50 (SN12C renal) was 119 nM and the TGI (SN12C renal) was 2530 nM. For the same compound, the GI50 (LOX IMVI melanoma) was 35 nM, the TGI (LOX IMVI melanoma) was 195 nM and the GI50 (UACC-62 melanoma) was 24.6 nM. For the same compound, the TGI (UACC-62 melanoma) was 175 nM, the GI50 (SF-539 CNS) was 72.8 nM and the TGI (SF-539 CNS) was 2310 nM. It also gave a GI50 (IGROV1 ovarian) of 41.8 nM, a TGI (IGROV1 ovarian) of 1510 nM and a GI50 (NCI-H460 lung) of 21.5 nM. The TGI (NCI-H460 lung) was 1390 nM, the GI50 (NCI-H23 lung) was 55.8 nM and the TGI (NCI-H23 lung) was 1270 nM. It also gave a GI50 (OVCAR-3 ovarian) of 88.6 nM, a TGI (OVCAR-3 ovarian) of 2770 nM and a GI50 (EKVX NSCLC) of 283 nM. The TGI (EKVX NSCLC) was 4.3 µM, the GI50 (T-47D breast) was 118 nM and the TGI (T-47D breast) was over 100 µM. For the same compound, the GI50 (UO-31 renal) was 25.9 nM, the TGI (UO-31 renal) was 782 nM and the GI50 (U251 CNS) was 85.8 nM. For the same compound, the TGI (U251 CNS) was over 100 µM, the GI50 (SF-295 CNS) was 29.1 nM and the TGI (SF-295 CNS) was 1550 nM. It also gave a GI50 (HT29 colon) of 46.4 nM, a TGI (HT29 colon) of 2490 nM and a GI50 (DU-145 prostate) of 145 nM. The TGI (DU-145 prostate) was 4.08 µM, the GI50 (UACC-257 melanoma) was 172 nM and the TGI (UACC-257 melanoma) was 2900 nM. The TGI (SR leukemia) was 1530 nM, the GI50 (CCRF-CEM leukemia) was 61.6 nM and the TGI (CCRF-CEM leukemia) was over 100 µM. For the same compound, the GI50 (SK-MEL-2 melanoma) was 77.1 nM, the TGI (SK-MEL-2 melanoma) was 1260 nM and the GI50 (NCI-H226 lung) was 60.7 nM. For the same compound, the TGI (NCI-H226 lung) was 517 nM, the GI50 (KM12 colon) was 78.5 nM and the TGI (KM12 colon) was 2670 nM.
